Test results taken from article PMC9635925, “Biological screening of a unique drug library targeting MRGPRX2” (Frontiers in Immunology, 2022).
Numbering of substitutions follows the chain as printed. Structures can show the parent of a compound that is named as a salt.

Key:
[1] = biological target: T1, MRGPRX2-WT (wild-type MRGPRX2 receptor) (Homo sapiens, UniProt Q96LB1); assay: Primary HTS, Ca2+ mobilization (fluorescence ratio, B-score) in HEK293-Gα15 cells stably expressing wild-type MRGPRX2; assay type: cell-based; conditions: 10 μM compound
T1 construct: expressed in transfected cells
T1 sequence (Q96LB1 1-330): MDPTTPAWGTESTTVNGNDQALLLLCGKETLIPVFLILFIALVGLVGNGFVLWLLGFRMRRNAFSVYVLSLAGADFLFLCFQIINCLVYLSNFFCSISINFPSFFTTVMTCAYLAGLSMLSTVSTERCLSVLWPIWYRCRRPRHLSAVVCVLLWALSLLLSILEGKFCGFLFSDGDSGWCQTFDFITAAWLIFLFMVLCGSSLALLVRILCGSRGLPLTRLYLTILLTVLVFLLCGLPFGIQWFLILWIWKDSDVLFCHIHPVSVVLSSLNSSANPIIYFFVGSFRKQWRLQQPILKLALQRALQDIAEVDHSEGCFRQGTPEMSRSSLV
Experimental: (§1) We performed an experimental HTS on the Johns Hopkins Drug Library, which includes 1,811 (57%) FDA-approved drugs among 3,456 total compounds (28% of all known drugs worldwide) ([15]). We performed the HTS at the Johns Hopkins University ChemBioCORE Facility and employed HEK293-Gα15 cell lines that stably expressed MRGPRX2 protein.
(§2) We utilized 10 μM compounds (each compound was tested in triplicate) and calculated the compound effect using the signal-to-background fluorescence ratio (see Supplementary Methods).
(§3) In the HTS, we determined MRGPRX2 activation by a Ca^2+ mobilization assay that recorded a fluorescence change by utilizing a Functional Drug Screening System (FDSS 6000; Hamamatsu); we evaluated the compound effect using the calculated fluorescence ratio. We further applied the B-score normalization, which provided robust corrections for variation in fluorescence ratio ([22]).
(§4) We performed an experimental high-throughput screening (HTS) on the Johns Hopkins Drug Library (JHDL), which includes 1,811 (57%) FDA-approved drugs among 3,456 total compounds (28% of all known drugs worldwide). The remaining compounds in JHDL are catalogued in one or more of the resources below: British Approved Names (BAN); Dénominations Communes Françaises (DCF); International Nonproprietary Names (INN); Japanese Adopted Names (JAN); MI (Merck Index); National Formulary drug name (NF); and United States Accepted Names (USAN). The JHU drug library is stocked in 96 well plates at 10 mM in 100% DMSO and stored at -80 °C. We used a final concentration of 10 uM for each compound and DMSO concentration of 0.1% (tested in triplicate). […] We evaluated compound effect using the calculated fluorescence ratio. We further calculated B-scores, which are a relative potency score similar to Z scores in that they are the ratio of an adjusted raw value in the numerator to a measure of variability in the denominator.

[2] = biological target: T2, MRGPRX2-MUT (MRGPRX2 N62S mutation) (Homo sapiens, UniProt Q96LB1, N62S); assay: Primary HTS, Ca2+ mobilization (fluorescence ratio, B-score) in HEK293-Gα15 cells stably expressing the MRGPRX2 N62S mutation; assay type: cell-based; conditions: for B-scores (MUT): 10 μM compound, MRGPRX2-MUT (N62S) cells; for Change of B-scores (%): 10 μM
T2 construct: expressed in transfected cells
T2 sequence (Q96LB1 1-330 N62S): T1 sequence (Q96LB1 1-330) with N62S
Experimental: as §1, §2, §3, §4

[3] = MRGPRX2-MUT in comparison to MRGPRX2-WT cells, Supplementary Table 1
[4] = MRGPRX2-MUT in comparison to MRGPRX2-WT cells, Table 1
[5] = MRGPRX2-MUT versus MRGPRX2-WT cells, Supplementary Table 2

With `CN1CCCC(n2nc(Cc3ccc(Cl)cc3)c3ccccc3c2=O)CC1` (centres unmarked) [Azelastine Hydrochloride] the “B-scores (WT)” value ([1]; Supplementary Table 1) was 36.21, the “B-scores (WT)” value ([1]; Table 1) was 36.21 and the “B-scores (MUT)” value ([2]; Supplementary Table 1) was 3.47. The “B-scores (MUT)” value ([2]; Table 1) was 3.47, the “Change of B-scores (%)” value [2, 3] was -90.42% and the “Change of B-scores (%)” value [2, 4] was -90.42%.
For `CN1[C@@H]2CC[C@H]1C[C@@H](OC(c1ccccc1)c1ccccc1)C2` [Benztropine Methanesulfonate], the “B-scores (WT)” value ([1]; Supplementary Table 1) was 26.25, the “B-scores (MUT)” value ([2]; Supplementary Table 1) was 2.81 and the “Change of B-scores (%)” value [2, 3] was -89.29%.
In the case of `CN1[C@@H]2CC[C@H]1C[C@@H](OC(c1ccccc1)c1ccccc1)C2` [Benztropine], the “B-scores (WT)” value ([1]; Supplementary Table 1) is reported as 21.42, the “B-scores (MUT)” value ([2]; Supplementary Table 1) is reported as 1.35 and the “Change of B-scores (%)” value [2, 3] is reported as -93.68%.
With `CC(C[N+](C)(C)C)OC(N)=O` (centres unmarked) [Bethanechol Chloride] the “B-scores (WT)” value ([1]; Supplementary Table 1) was 19.27, the “B-scores (MUT)” value ([2]; Supplementary Table 1) was 37.55 and the “Change of B-scores (%)” value [2, 3] was 94.89%.
In the case of `CN(C)CCOC(c1ccccc1)c1ccc(Br)cc1.Cl` (centres unmarked) [Bromazine hydrochloride], the “B-scores (WT)” value ([1]; Supplementary Table 2) is reported as 11.37, the “B-scores (MUT)” value ([2]; Supplementary Table 2) is reported as -0.05 and the “Change of B-scores (%)” value [2, 5] is reported as -100.41%.
For `CN(C)CCC(c1ccc(Br)cc1)c1ccccn1` (centres unmarked) [Brompheniramine], the “B-scores (WT)” value ([1]; Supplementary Table 1) was 18.22, the “B-scores (WT)” value ([1]; Supplementary Table 2) was 18.22 and the “B-scores (WT)” value ([1]; Table 1) was 18.22. The “B-scores (MUT)” value ([2]; Supplementary Table 1) was 0.64, the “B-scores (MUT)” value ([2]; Supplementary Table 2) was 0.64 and the “B-scores (MUT)” value ([2]; Table 1) was 0.64. The “Change of B-scores (%)” value [2, 3] was -96.48%, the “Change of B-scores (%)” value [2, 4] was -96.48% and the “Change of B-scores (%)” value [2, 5] was -96.48%.
For `C[N+](C)(C)CCOC(N)=O` [Carbachol], the “B-scores (WT)” value ([1]; Supplementary Table 1) was 42.55, the “B-scores (WT)” value ([1]; Supplementary Table 2) was 42.55 and the “B-scores (MUT)” value ([2]; Supplementary Table 1) was 63.57. For the same compound, the “B-scores (MUT)” value ([2]; Supplementary Table 2) was 63.57, the “Change of B-scores (%)” value [2, 3] was 49.41% and the “Change of B-scores (%)” value [2, 5] was 49.41%.
`CN(C)CCOC(c1ccc(Cl)cc1)c1ccccn1` (centres unmarked) [Carbinoxamine Maleate] was tested, and the “B-scores (WT)” value ([1]; Supplementary Table 1) was 38.93, the “B-scores (WT)” value ([1]; Table 1) was 38.93 and the “B-scores (MUT)” value ([2]; Supplementary Table 1) was 1.49. The “B-scores (MUT)” value ([2]; Supplementary Table 2) was 1.49, the “B-scores (MUT)” value ([2]; Table 1) was 1.49 and the “Change of B-scores (%)” value [2, 3] was -96.18%. For the same compound, the “Change of B-scores (%)” value [2, 4] was -96.18% and the “Change of B-scores (%)” value [2, 5] was -94.84%.
For `CN(C)CCOC(c1ccc(Cl)cc1)c1ccccn1` (centres unmarked) [Carbinoxamine], the “B-scores (WT)” value ([1]; Supplementary Table 2) was 11.13, the “B-scores (MUT)” value ([2]; Supplementary Table 2) was 0.12 and the “Change of B-scores (%)” value [2, 5] was -98.93%.
With `CC(=O)O.CC(=O)O.CC[C@H](C)C[C@H](C)CCCCCCCCC(=O)N[C@H]1C[C@@H](O)[C@@H](NCCN)NC(=O)[C@@H]2[C@@H](O)CCN2C(=O)[C@H]([C@H](O)CCN)NC(=O)[C@H]([C@H](O)[C@@H](O)c2ccc(O)cc2)NC(=O)[C@@H]2C[C@@H](O)CN2C(=O)[C@H]([C@@H](C)O)NC1=O` [Caspofungin acetate] the “B-scores (WT)” value ([1]; Supplementary Table 1) was 29.98, the “B-scores (MUT)” value ([2]; Supplementary Table 1) was 16.90 and the “Change of B-scores (%)” value [2, 3] was -43.63%.
`COc1ccc2cc1Oc1ccc(cc1)C[C@H]1c3c(cc4c(c3Oc3cc5c(cc3OC)CCN(C)[C@@H]5C2)OCO4)CCN1C` [Cepharanthine] was tested, and the “B-scores (WT)” value ([1]; Supplementary Table 1) was 19.73, the “B-scores (WT)” value ([1]; Table 1) was 19.73 and the “B-scores (MUT)” value ([2]; Supplementary Table 1) was 1.14. For the same compound, the “B-scores (MUT)” value ([2]; Table 1) was 1.14, the “Change of B-scores (%)” value [2, 3] was -94.20% and the “Change of B-scores (%)” value [2, 4] was -94.20%.
With `CN(C)CCN(Cc1ccc(Cl)cc1)c1ccccn1.Cl` [Chloropyramine Hydrochloride] the “B-scores (WT)” value ([1]; Supplementary Table 2) was 14.6, the “B-scores (MUT)” value ([2]; Supplementary Table 2) was 3.24 and the “Change of B-scores (%)” value [2, 5] was -77.83%.
With `CN(C)CCC(c1ccc(Cl)cc1)c1ccccn1` (centres unmarked) [Chlorpheniramine] the “B-scores (WT)” value ([1]; Supplementary Table 2) was 9.6, the “B-scores (MUT)” value ([2]; Supplementary Table 2) was 0.88 and the “Change of B-scores (%)” value [2, 5] was -90.88%.
In the case of `CN(C)CCCN1c2ccccc2Sc2ccc(Cl)cc21` [Chlorpromazine Hydrochloride], the “B-scores (WT)” value ([1]; Supplementary Table 2) is reported as 7.97, the “B-scores (MUT)” value ([2]; Supplementary Table 2) is reported as 2.69 and the “Change of B-scores (%)” value [2, 5] is reported as -66.27%.
In the case of `CN(C)CCCN1c2ccccc2Sc2ccc(Cl)cc21` [Chlorpromazine], the “B-scores (WT)” value ([1]; Supplementary Table 2) is reported as 10.2, the “B-scores (MUT)” value ([2]; Supplementary Table 2) is reported as -0.05 and the “Change of B-scores (%)” value [2, 5] is reported as -100.54%.
